From ChEMBL document CHEMBL1201862, “PubChem BioAssay data set” (2004)
Where a name gives a salt, the structure may show the parent alone. Calls of active or inactive are those of the source.

What was measured:
[1] = biological target: T1, Mannose-6-phosphate isomerase (Homo sapiens, UniProt P34949); assay: human PMI inhibitors, high substrate, primary screen, biochemical, fluorescence intensity, high mannose 6-phosphate (AID 1220)
T1 sequence (P34949 whole entry): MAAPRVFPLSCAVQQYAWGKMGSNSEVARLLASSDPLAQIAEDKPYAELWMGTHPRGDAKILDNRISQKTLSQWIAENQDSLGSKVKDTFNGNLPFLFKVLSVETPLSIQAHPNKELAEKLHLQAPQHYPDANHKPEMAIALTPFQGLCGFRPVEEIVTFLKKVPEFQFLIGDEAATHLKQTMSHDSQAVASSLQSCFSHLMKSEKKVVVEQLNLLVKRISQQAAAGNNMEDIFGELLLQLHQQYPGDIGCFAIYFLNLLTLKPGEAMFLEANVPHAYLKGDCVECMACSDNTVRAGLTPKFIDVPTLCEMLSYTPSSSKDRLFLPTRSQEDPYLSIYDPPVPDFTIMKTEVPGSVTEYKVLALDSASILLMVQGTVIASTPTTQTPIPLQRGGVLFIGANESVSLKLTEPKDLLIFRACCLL

[2] = biological target: Sphingosine 1-phosphate receptor 2 (Homo sapiens, UniProt O95136); assay: Dose Response Cell Based Assay for Agonists of the S1P2 Receptor. [Related pubchem assays: 729, 736, 843 ]; format: functional
[3] = microbe, parasite or virus in culture; format: functional; conditions: Mycobacterium tuberculosis
[4] = Luminescence Cell-Based Dose Response to Identify Activators of Luciferase Translation or Activity in H4-C Neuroglioblastoma Cells. [Related pubchem assays: 1829 (Project Summary), 1814 (Primary HTS)]; format: functional
[5] = Luminescence Cell-Based Dose Response to Identify Activators of 5'UTR Stem-Loop Driven Prion Protein mRNA Translation in H4-C Neuroglioblastoma Cells. [Related pubchem assays: 1829 (Project Summary), 1814 (Primary HTS)]; format: functional
[6] = HeLa cell cytotoxicity, dose response, cytotoxicity control for MgcRacGAP inhibitor project (AID 624300); format: functional
Streptococcus = assay: Group A Streptococcus viability loss, dose response, counter-screen for streptokinase expression inhibitor project, luminescence, BacTiterGlo (AID 1915); format: functional, organism-based;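 further: potency for reduction of bacterial viability or growth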
Bcl-2-like protein 1 = Bcl-2-like protein 1 (Homo sapiens, UniProt Q07817); assay: BCL-XL inhibitors, dose response, selectivity assay for MCL1 inhibitor project, biochemical, fluorescence polarization, 1536-well (AID 2218)
Bcl-2-like protein 1, sequence (Q07817 whole entry): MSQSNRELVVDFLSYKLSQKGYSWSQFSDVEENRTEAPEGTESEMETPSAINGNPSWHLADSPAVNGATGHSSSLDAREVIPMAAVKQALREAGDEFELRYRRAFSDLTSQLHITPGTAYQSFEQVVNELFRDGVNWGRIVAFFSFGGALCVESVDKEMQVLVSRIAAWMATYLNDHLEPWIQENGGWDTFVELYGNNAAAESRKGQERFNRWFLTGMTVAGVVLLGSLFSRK

[7] = biological target: Polyadenylate-binding protein 1 (Homo sapiens, UniProt P11940); assay: PABP1 MLLE–PAM2 binding inhibitor potency, dose response, biochemical, fluorescence polarization, FITC-PAM2 peptide (AID 602259); format: functional; conditions: read-out: IC50_Mean
Polyadenylate-binding protein 1, sequence (P11940 whole entry): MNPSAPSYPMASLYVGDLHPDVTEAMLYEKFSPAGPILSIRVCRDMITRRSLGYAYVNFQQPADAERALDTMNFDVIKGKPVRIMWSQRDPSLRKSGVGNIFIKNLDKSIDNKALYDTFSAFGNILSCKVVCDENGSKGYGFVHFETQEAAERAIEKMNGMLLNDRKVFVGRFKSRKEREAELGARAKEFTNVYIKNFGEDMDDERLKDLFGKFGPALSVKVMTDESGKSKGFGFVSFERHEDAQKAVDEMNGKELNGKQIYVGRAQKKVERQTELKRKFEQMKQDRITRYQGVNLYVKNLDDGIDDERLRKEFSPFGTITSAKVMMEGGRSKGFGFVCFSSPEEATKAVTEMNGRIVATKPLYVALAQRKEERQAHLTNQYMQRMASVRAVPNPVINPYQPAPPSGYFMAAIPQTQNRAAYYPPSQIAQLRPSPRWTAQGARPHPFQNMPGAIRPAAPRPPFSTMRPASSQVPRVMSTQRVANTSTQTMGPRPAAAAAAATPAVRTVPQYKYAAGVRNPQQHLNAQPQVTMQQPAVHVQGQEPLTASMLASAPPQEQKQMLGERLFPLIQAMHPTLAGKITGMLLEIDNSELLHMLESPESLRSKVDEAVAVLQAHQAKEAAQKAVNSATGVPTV

[8] = biological target: Megakaryocyte-associated tyrosine-protein kinase (Homo sapiens, UniProt P42679); format: functional;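 further: affinity measured as one member of a kinase panel (Navigating the Kinome) against MATK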
[9] = biological target: Glycogen synthase kinase-3 alpha (Homo sapiens, UniProt P49840); format: functional;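 further: GSK3A result taken from a broad kinome-wide kinase panel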
Glycogen synthase kinase-3 alpha, sequence (P49840 whole entry): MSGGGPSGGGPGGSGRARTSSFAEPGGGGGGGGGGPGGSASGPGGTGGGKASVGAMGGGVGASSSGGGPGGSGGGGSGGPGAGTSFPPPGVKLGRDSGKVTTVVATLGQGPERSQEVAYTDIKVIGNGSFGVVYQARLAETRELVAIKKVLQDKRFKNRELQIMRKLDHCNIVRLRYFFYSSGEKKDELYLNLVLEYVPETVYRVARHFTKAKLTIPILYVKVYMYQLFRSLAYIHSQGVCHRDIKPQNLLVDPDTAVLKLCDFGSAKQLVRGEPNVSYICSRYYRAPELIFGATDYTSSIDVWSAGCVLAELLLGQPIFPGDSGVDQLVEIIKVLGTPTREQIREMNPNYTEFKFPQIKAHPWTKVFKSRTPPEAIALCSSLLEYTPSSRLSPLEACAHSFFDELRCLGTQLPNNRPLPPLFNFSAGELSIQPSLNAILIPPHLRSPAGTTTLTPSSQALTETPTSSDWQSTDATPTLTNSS

[10] = biological target: Mitogen-activated protein kinase kinase kinase 20 (Homo sapiens, UniProt Q9NYL2); format: functional
Mitogen-activated protein kinase kinase kinase 20, sequence (Q9NYL2 whole entry): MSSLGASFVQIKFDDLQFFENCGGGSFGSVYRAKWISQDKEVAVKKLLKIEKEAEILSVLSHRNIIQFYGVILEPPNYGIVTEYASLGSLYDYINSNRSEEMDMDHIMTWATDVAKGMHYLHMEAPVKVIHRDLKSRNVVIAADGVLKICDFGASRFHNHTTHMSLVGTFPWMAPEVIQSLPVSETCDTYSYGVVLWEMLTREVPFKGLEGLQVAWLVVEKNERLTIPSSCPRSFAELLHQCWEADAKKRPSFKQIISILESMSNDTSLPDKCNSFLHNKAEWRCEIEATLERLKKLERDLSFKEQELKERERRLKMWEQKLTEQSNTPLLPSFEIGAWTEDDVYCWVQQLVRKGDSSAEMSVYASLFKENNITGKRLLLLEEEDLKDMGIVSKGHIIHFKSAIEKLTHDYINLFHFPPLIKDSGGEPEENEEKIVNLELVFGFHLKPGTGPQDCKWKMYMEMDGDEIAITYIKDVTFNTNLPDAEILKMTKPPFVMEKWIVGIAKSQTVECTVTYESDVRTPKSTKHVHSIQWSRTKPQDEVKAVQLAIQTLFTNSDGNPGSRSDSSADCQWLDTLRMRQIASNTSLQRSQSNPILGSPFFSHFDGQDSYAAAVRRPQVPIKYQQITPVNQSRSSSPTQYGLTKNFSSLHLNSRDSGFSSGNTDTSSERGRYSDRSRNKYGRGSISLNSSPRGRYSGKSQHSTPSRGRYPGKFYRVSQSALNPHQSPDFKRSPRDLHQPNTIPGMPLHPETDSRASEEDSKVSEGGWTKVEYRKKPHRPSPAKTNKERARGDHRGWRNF

[11] = biological target: Serine/threonine-protein kinase 17A (Homo sapiens, UniProt Q9UEE5); format: functional
Serine/threonine-protein kinase 17A, sequence (Q9UEE5 whole entry): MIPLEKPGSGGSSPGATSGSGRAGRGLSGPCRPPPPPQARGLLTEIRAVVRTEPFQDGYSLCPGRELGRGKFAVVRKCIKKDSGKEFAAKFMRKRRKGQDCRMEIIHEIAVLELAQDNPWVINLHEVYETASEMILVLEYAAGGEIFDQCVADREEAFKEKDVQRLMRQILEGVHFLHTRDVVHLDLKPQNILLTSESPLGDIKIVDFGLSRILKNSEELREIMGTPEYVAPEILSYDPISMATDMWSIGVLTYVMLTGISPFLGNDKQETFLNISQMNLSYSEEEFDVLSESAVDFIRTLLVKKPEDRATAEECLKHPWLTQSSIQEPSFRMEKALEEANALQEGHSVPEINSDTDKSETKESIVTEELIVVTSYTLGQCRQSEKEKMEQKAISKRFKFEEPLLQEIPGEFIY

[12] = biological target: Tyrosine-protein kinase ITK/TSK (Homo sapiens, UniProt Q08881); format: functional;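 further: affinity for ITK measured as one member of a broad kinase panel profiling binding across the kinome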
[13] = biological target: cAMP-dependent protein kinase catalytic subunit PRKX (Homo sapiens, UniProt P51817); format: functional
[14] = biological target: Tyrosine-protein kinase FRK (Homo sapiens, UniProt P42685); format: functional;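 further: FRK tested as one member of a kinome panel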
[15] = biological target: Mitogen-activated protein kinase 1 (Homo sapiens, UniProt P28482); format: functional
[16] = biological target: Calcium/calmodulin-dependent protein kinase type II subunit delta (Homo sapiens, UniProt Q13557); format: functional
[17] = biological target: Casein kinase II subunit alpha (Homo sapiens, UniProt P68400); format: functional
[18] = biological target: Serine/threonine-protein kinase D3 (Homo sapiens, UniProt O94806); format: functional;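 further: determined within a kinase panel screen, with PRKCN as the panel member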
[19] = biological target: Ribosomal protein S6 kinase alpha-3 (Homo sapiens, UniProt P51812); format: functional;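 further: measured within a kinome-wide profiling panel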
Misshapen-like kinase 1 = Misshapen-like kinase 1 (Homo sapiens, UniProt Q8N4C8); format: functional;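 further: kinome panel screen with MINK as the panel member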
[20] = biological target: Dual specificity tyrosine-phosphorylation-regulated kinase 1B (Homo sapiens, UniProt Q9Y463); assay: Navigating the Kinome. Panel member name: DYRK1B; format: functional
Dual specificity tyrosine-phosphorylation-regulated kinase 1B, sequence (Q9Y463 whole entry, canonical isoform): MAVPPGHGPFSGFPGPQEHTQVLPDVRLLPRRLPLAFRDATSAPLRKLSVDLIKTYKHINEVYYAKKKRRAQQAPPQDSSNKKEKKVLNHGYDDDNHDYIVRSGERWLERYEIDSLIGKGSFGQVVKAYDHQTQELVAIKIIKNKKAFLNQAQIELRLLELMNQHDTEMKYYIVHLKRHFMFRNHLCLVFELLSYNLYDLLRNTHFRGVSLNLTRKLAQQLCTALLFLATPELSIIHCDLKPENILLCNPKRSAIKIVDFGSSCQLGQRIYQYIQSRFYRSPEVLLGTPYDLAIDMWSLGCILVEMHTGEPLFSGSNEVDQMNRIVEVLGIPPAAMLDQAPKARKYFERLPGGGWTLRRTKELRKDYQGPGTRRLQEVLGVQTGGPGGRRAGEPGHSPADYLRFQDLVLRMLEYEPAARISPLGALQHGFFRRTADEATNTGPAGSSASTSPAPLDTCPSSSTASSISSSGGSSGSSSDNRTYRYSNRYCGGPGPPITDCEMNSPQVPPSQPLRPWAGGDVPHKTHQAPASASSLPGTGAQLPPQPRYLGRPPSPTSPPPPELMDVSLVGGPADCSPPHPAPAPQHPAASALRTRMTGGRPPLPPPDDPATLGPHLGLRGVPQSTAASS

[21] = biological target: Phosphorylase b kinase gamma catalytic chain, liver/testis isoform (Homo sapiens, UniProt P15735); format: functional;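 further: PHKG2 measured as one member of a kinome-wide kinase panel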
[22] = biological target: Receptor tyrosine-protein kinase erbB-2 (Homo sapiens, UniProt P04626); assay: Navigating the Kinome. Panel member name: ERBB2; format: functional
[23] = biological target: Tyrosine-protein kinase JAK3 (Homo sapiens, UniProt P52333); format: functional
[24] = biological target: Receptor-type tyrosine-protein kinase FLT3 (Homo sapiens, UniProt P36888); format: functional;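 further: FLT3 was tested as one member of a kinome-wide kinase panel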
[25] = biological target: cAMP-dependent protein kinase catalytic subunit alpha (Homo sapiens, UniProt P17612); format: functional
[26] = biological target: Mitogen-activated protein kinase 14 (Homo sapiens, UniProt Q16539); format: functional;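 further: part of a kinome-wide panel, MAPK14 entry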
Mitogen-activated protein kinase 14, sequence (Q16539 whole entry): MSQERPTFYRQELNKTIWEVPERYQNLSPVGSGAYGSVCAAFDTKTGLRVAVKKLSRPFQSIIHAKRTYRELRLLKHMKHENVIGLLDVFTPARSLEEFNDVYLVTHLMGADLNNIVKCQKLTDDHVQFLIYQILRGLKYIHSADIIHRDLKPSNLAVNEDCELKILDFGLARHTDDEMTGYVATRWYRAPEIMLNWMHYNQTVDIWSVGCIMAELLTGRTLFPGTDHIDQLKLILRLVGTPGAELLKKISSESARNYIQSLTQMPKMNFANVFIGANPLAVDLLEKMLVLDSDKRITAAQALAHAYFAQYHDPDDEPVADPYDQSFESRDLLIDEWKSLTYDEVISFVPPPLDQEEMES

[27] = biological target: Serine/threonine-protein kinase DCLK1 (Homo sapiens, UniProt O15075); format: functional;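 further: affinity for DCLK1 (listed as DCAMKL1) measured as one member of a kinome-wide kinase profiling panel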
[28] = biological target: Vascular endothelial growth factor receptor 2 (Homo sapiens, UniProt P35968); format: functional
[29] = biological target: Serine/threonine-protein kinase pim-2 (Homo sapiens, UniProt Q9P1W9); format: functional;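 further: value comes from a broad kinase panel profiling study in which PIM2 was one of the panel members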
[30] = biological target: ALK tyrosine kinase receptor (Homo sapiens, UniProt Q9UM73); format: functional;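 further: ALK tested as one member of a kinase panel screen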
[31] = biological target: Insulin-like growth factor 1 receptor (Homo sapiens, UniProt P08069); assay: Navigating the Kinome. Panel member name: IGF1R; format: functional
Insulin-like growth factor 1 receptor, sequence (P08069 31-736 limits assumed): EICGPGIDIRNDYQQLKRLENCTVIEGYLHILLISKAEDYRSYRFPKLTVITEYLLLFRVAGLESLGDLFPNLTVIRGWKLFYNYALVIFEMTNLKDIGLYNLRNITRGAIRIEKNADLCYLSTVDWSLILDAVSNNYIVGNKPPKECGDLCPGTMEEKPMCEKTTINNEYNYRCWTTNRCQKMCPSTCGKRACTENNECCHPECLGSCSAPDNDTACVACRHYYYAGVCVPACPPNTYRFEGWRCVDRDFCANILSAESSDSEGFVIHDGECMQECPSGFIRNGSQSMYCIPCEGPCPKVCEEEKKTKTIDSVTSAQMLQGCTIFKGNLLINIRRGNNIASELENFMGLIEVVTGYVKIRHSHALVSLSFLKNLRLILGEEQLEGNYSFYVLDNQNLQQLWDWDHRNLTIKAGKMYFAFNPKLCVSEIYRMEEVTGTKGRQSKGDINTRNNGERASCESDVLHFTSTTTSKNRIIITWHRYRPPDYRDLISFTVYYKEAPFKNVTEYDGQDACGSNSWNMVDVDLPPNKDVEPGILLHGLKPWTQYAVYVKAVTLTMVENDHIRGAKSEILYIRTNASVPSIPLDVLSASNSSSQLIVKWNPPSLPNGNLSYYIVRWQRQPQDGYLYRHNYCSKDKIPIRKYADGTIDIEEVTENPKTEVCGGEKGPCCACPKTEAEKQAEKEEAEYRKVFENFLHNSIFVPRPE
Insulin-like growth factor 1 receptor, sequence (P08069 741-1367 limits assumed): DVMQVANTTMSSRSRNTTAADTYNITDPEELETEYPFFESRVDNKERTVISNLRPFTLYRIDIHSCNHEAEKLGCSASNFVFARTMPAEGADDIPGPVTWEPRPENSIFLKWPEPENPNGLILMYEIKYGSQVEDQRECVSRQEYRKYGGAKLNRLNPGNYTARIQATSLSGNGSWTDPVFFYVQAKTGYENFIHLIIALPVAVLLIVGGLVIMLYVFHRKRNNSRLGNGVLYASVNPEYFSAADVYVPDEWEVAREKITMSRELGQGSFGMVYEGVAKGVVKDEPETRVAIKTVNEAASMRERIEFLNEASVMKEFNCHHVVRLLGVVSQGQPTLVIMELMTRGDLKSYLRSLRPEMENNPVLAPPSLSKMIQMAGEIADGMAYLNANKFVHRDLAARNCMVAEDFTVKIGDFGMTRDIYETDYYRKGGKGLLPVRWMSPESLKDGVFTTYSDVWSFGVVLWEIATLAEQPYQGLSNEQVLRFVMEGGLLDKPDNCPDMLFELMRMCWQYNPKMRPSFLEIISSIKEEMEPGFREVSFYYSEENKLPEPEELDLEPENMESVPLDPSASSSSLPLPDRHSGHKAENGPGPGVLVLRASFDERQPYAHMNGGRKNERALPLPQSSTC

[32] = biological target: Interleukin-1 receptor-associated kinase 4 (Homo sapiens, UniProt Q9NWZ3); format: functional
[33] = biological target: Serine/threonine-protein kinase D2 (Homo sapiens, UniProt Q9BZL6); format: functional;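 further: measured against PRKD2 as one member of a kinome-wide kinase profiling panel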
[34] = biological target: Serine/threonine-protein kinase PLK1 (Homo sapiens, UniProt P53350); format: functional;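 further: PLK1 measured as one member of a kinome-wide profiling panel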
Ephrin type-A receptor 2 = Ephrin type-A receptor 2 (Homo sapiens, UniProt P29317); format: functional;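 further: EPHA2 tested as one member of a kinome-wide kinase panel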

## CCC(C)n1c(NC(=O)c2ccccc2)c(C#N)c2nc3ccccc3nc21 (stereo not drawn)
[1]
  IC50: > 50 µM (not active)
[2]
  EC50: 4.6 µM (active)
[3]
  CC50: 28.1 µM (active)

## CCN1/C(=C\c2ccc3ccccc3[n+]2CC)Sc2cc(C)ccc21
[4]
  EC50: > 12 µM (not active)
[5]
  EC50: > 12 µM (not active)
[6]
  CC50: 14.4 µM (active)

## CCCCCCCCCCOC(=O)C[n+]1c(COc2ccc(C)cc2)n(C)c2ccccc21
Streptococcus
  EC50: 7.92 µM (active)

## CC[C@@H](CO)NC(=O)[C@@H]1C=C2c3cccc4c3c(cn4C)C[C@H]2N(C)C1 [METHYSERGIDE MALEATE]
Bcl-2-like protein 1
  IC50: 22.6 µM (not active)
[7]
  IC50: 32.2 µM (inactive)

## CN1CCN(c2nc(C3=C(c4c[nH]c5ccccc45)C(=O)NC3=O)c3ccccc3n2)CC1 [SOTRASTAURIN]
[8]
  Ki: > 2 µM (inactive)
[9]
  Ki: 0.158 µM (active)
[10]
  Ki: > 7.94 µM (inactive)
[11]
  Ki: > 3.98 µM (inactive)
[12]
  Ki: > 1.58 µM (inactive)
[13]
  Ki: > 2.51 µM (inactive)
[14]
  Ki: > 2.51 µM (inactive)
[15]
  Ki: > 7.94 µM (inactive)
[16]
  Ki: 0.0316 µM (active)
[17]
  Ki: > 6.31 µM (inactive)
[18]
  Ki: > 3.16 µM (inactive)
[19]
  Ki: 0.126 µM (active)
Misshapen-like kinase 1
  Ki: 0.00794 µM (active)
[20]
  Ki: > 2.51 µM (inactive)
[21]
  Ki: > 5.01 µM (inactive)
[22]
  Ki: 0.794 µM (active)
[23]
  Ki: 0.631 µM (active)
[24]
  Ki: > 1.58 µM (inactive)
[25]
  Ki: > 1.26 µM (inactive)
[26]
  Ki: > 3.98 µM (inactive)
[27]
  Ki: > 10 µM (inactive)
[28]
  Ki: 0.398 µM (active)
[29]
  Ki: 0.00158 µM (active)
[30]
  Ki: > 1.58 µM (inactive)
[31]
  Ki: > 2 µM (inactive)
[32]
  Ki: > 10 µM (inactive)
[33]
  Ki: > 10 µM (inactive)
[34]
  Ki: 0.0631 µM (active)
Ephrin type-A receptor 2
  Ki: > 3.16 µM (inactive)
